Measurements as given in patent US10172814B2, “Substituted pyridyl-cycloalkyl-carboxylic acids, compositions containing them and medical uses thereof” (BAYER PHARMA AKTIENGESELLSCHAFT, priority 2014, dated 2019).

These molecules were tested against human PTGES (Homo sapiens (Human), UniProt O14684) (assay: Human PTGES biochemical enzyme inhibition assay (conversion of PGH2 to PGE2, TR-FRET)). Settings: Enzymatic conversion of PGH2 to PGE2; read-out: Human PTGES IC50.
Procedure, shortened: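 FLAG-tagged human PTGES from Hi-5 insect cells preincubated 15–20 min with compound in pH 7.2 phosphate buffer with 2.5 mM reduced glutathione; reaction started with 8 nM PGH2 final, stopped with SnCl2/KF.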

Chain of human PTGES (O14684 whole entry): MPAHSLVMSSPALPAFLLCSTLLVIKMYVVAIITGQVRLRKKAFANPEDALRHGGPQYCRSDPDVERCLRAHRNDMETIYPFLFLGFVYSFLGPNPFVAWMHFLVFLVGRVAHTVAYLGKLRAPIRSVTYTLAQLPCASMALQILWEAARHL

Structure (SMILES)	IC50 [nM]
Cc1ncc(-c2ccc(C(C(=O)Nc3cccc(CC(C)C(=O)O)c3C)C3CCCC3)cc2)cc1F (stereo not shown) [Example 82, (2R/2S)-3-[3-({(2R/2S)-2-Cyclopentyl-2-[4-(5-fluoro-6-methylpyridin-3-yl)phenyl]acetyl}amino)-2-methylphenyl]-2-methylpropanoic acid]	90.6
Cc1cc(-c2ccc(C(C(=O)Nc3cccc(CC(C)C(=O)O)c3C)C3CCCC3)cc2)cnc1C (stereo not shown) [Example 78, (2R/2S)-3-[3-({(2R/2S)-2-Cyclopentyl-2-[4-(5,6-dimethylpyridin-3-yl)phenyl]acetyl}amino)-2-methylphenyl]-2-methylpropanoic acid]	118
Cc1c(CCC(=O)O)cccc1NC(=O)C(c1ccc(-c2cncc(CC(C)C)c2)c(F)c1)C1CCC1 (single isomer, unassigned) [Example 207, 3-[3-({cyclobutyl[3-fluoro-4-(5-isobutylpyridin-3-yl)phenyl]acetyl}amino)-2-methylphenyl]propanoic acid, Single Enantiomer]	14.1
Cc1c(CCC(=O)O)cccc1NC(=O)[C@@H](c1ccc(-c2cncc(OC(C)C)c2)cc1)C1CCCC1 [Example 190, 3-(3-{[(2R)-2-cyclopentyl-2-{4-[5-(propan-2-yloxy)pyridin-3-yl]phenyl}acetyl]amino}-2-methylphenyl)propanoic acid]	36.1
Cc1c(CCC(=O)O)cccc1NC(=O)C(c1ccc(-c2cncc(C(F)(F)F)c2)cc1)C1CCC1 (racemic) [Example 54, (R/S) 3-{3-[(Cyclobutyl{4-[5-(trifluoromethyl)pyridin-3-yl]phenyl}acetyl)amino]-2-methylphenyl}propanoic acid]	27.3
Cc1c(NC(=O)C(c2ccc(-c3cncc(C(F)F)c3)cc2)C2CCCC2)cccc1C(C)CC(=O)O (mixture of isomers) [Example 98, (3R/S)-3-(3-{[(2R/S)-2-Cyclopentyl-2-{4-[5-(difluoromethyl)pyridin-3-yl]phenyl}acetyl]amino}-2-methylphenyl)butanoic acid]	33.8
Cc1cncc(-c2ccc(C(C(=O)Nc3cccc(CCC(=O)O)c3C)C3CCC3)cc2)c1 (racemic) [Example 64, (R/S) 3-[3-({Cyclobutyl[4-(5-methylpyridin-3-yl)phenyl]acetyl}amino)-2-methylphenyl]propanoic acid]	344
Cc1c(CCC(=O)O)cccc1NC(=O)C(c1ccc(-c2cncc(OC(F)F)c2)cc1)C1CCCC1 (racemic) [Example 28, (R/S) 3-{3-[(Cyclopentyl{4-[5-(difluoromethoxy)pyridin-3-yl]phenyl}acetyl)amino]-2-methylphenyl}propanoic acid]	380
Cc1ncc(-c2ccc(C(C(=O)Nc3cccc(CCC(=O)O)c3C)C3CCC3)cc2F)cc1C(F)(F)F (single isomer, unassigned; (-)) [Example 206, (−) 3-{3-[(cyclobutyl{3-fluoro-4-[6-methyl-5-(trifluoromethyl)pyridin-3-yl]phenyl}acetyl)amino]-2-methylphenyl}propanoic acid, Single Enantiomer]	10.1
Cc1c(CCC(=O)O)cccc1NC(=O)C(c1ccc(-c2cncc(C3CC3)c2)cc1)C1CCCC1 (racemic) [Example 14, (R/S) 3-[3-({Cyclopentyl[4-(5-cyclopropylpyridin-3-yl)phenyl]acetyl}amino)-2-methylphenyl]propanoic acid]	115
Cc1c(NC(=O)C(c2ccc(-c3cncc(C(F)(F)F)c3)c(F)c2)C2CCC2)cccc1C(C)CC(=O)O (single isomer, unassigned; stereoisomer 2) [Example 148, 3-{3-[(Cyclobutyl{3-fluoro-4-[5-(trifluoromethyl)pyridin-3-yl]phenyl}acetyl)amino]-2-methylphenyl}butanoic acid, Stereoisomer 2]	24.2
Cc1ncc(-c2ccc(C(C(=O)Nc3cccc(C(C)CC(=O)O)c3C)C3CCCC3)cc2)cc1F (mixture of isomers) [Example 96, (3R/S)-3-[3-({(2R/S)-2-[4-(5-Fluoro-6-methylpyridin-3-yl)phenyl]-2-cyclopentylacetyl}amino)-2-methylphenyl]butanoic acid]	36.9
Cc1c(NC(=O)C(c2ccc(-c3cncc(C(F)(F)F)c3)c(F)c2)C2CCCC2)cccc1C(C)CC(=O)O (single isomer, unassigned; stereoisomer 4) [Example 119, 3-{3-[(Cyclopentyl{3-fluoro-4-[5-(trifluoromethyl)pyridin-3-yl]phenyl}acetyl)amino]-2-methylphenyl}butanoic acid, Stereoisomer 4]	1060
Cc1ncc(-c2ccc([C@H](C(=O)Nc3cccc(CCC(=O)O)c3C)C3CCCC3)cc2)cc1C(F)(F)F [Example 192, 3-(3-{[(2R)-2-cyclopentyl-2-{4-[6-methyl-5-(trifluoromethyl)pyridin-3-yl]phenyl}acetyl]amino}-2-methylphenyl)propanoic acid]	13.5
Cc1c(NC(=O)C(c2ccc(-c3cncc(Cl)c3)c(F)c2)C2CCCC2)cccc1C(C)CC(=O)O (single isomer, unassigned; stereoisomer 4) [Example 129, 3-[3-({[4-(5-Chloropyridin-3-yl)-3-fluorophenyl](cyclopentyl)acetyl}amino)-2-methylphenyl]butanoic acid, Stereoisomer 4]	5.6
CCOc1cncc(-c2ccc(C(C(=O)Nc3cccc(CCC(=O)O)c3C)C3CCC3)cc2)c1 (racemic) [Example 58, (R/S) 3-[3-({Cyclobutyl[4-(5-ethoxypyridin-3-yl)phenyl]acetyl}amino)-2-methylphenyl]propanoic acid]	210
Cc1ncc(-c2cc(F)c(C(C(=O)Nc3cccc(CCC(=O)O)c3C)C3CCCC3)cc2F)cc1Cl (racemic) [Example 180, (R/S) 3-[3-({[4-(5-chloro-6-methylpyridin-3-yl)-2,5-difluorophenyl](cyclopentyl)acetyl}amino)-2-methylphenyl]propanoic acid]	66.4
Cc1cc(C(C(=O)Nc2cccc(CCC(=O)O)c2C)C2CCCC2)c(Cl)cc1-c1cncc(C(F)(F)F)c1 (racemic) [Example 173, (R/S) 3-(3-{[{2-chloro-5-methyl-4-[5-(trifluoromethyl)pyridin-3-yl]phenyl}(cyclopentyl)acetyl]amino}-2-methylphenyl)propanoic acid]	1240
Cc1c(NC(=O)C(c2ccc(-c3cncc(F)c3)cc2)C2CCCC2)cccc1C(C)CC(=O)O (mixture of isomers) [Example 95, (3R/S)-3-[3-({(2R/S)-2-Cyclopentyl-2-[4-(5-fluoropyridin-3-yl)phenyl]acetyl}amino)-2-methylphenyl]butanoic acid]	41.7
Cc1cncc(-c2ccc(C(C(=O)Nc3cccc(C(CC(=O)O)C4CC4)c3C)C3CCCC3)cc2)c1 (mixture of isomers) [Example 113, (3R/S)-3-[3-({(2R/S)-2-cyclopentyl-2-[4-(5-methylpyridin-3-yl)phenyl]acetyl}amino)-2-methylphenyl]-3-cyclopropylpropanoic acid]	140
Cc1c(NC(=O)C(c2ccc(-c3cncc(C(F)(F)F)c3)c(F)c2)C2CCCC2)cccc1N(C)CC(=O)O (single isomer, unassigned; (-)) [Example 188, (−) N-{3-[(cyclopentyl{3-fluoro-4-[5-(trifluoromethyl)pyridin-3-yl]phenyl}acetyl)amino]-2-methylphenyl}-N-methylglycine, Single Enantiomer]	24.2
Cc1ncc(-c2ccc(C(C(=O)Nc3cccc(C(C)CC(=O)O)c3C)C3CCCC3)cc2F)cc1Cl (single isomer, unassigned; stereoisomer 3) [Example 123, 3-[3-({[4-(5-Chloro-6-methylpyridin-3-yl)-3-fluorophenyl](cyclopentyl)acetyl}amino)-2-methylphenyl]butanoic acid, Stereoisomer 3]	646
Cc1c(NC(=O)C(c2ccc(-c3cncc(C(F)(F)F)c3)cc2)C2CCCC2)cccc1OCC(=O)O (single isomer, unassigned; (-)) [Example 34, (−) {3-[(Cyclopentyl{4-[5-(trifluoromethyl)pyridin-3-yl]phenyl}acetyl)amino]-2-methylphenoxy}acetic acid]	9.85
Cc1c(CCC(=O)O)cc(F)cc1NC(=O)C(c1ccc(-c2cncc(Cl)c2)cc1)C1CCCC1 (racemic) [Example 168, (R/S) 3-[3-({[4-(5-chloropyridin-3-yl)phenyl](cyclopentyl)acetyl}amino)-5-fluoro-2-methylphenyl]propanoic acid]	1190
Cc1c(NCC(=O)O)cccc1NC(=O)C(c1ccc(-c2cncc(C(F)(F)F)c2)cc1)C1CCCC1 (racemic) [Example 171, (R/S) N-{3-[(cyclopentyl{4-[5-(trifluoromethyl)pyridin-3-yl]phenyl}acetyl)amino]-2-methylphenyl}glycine]	319
CCOc1cncc(-c2ccc(C(C(=O)Nc3cccc(C(CC(=O)O)C4CC4)c3C)C3CCCC3)cc2)c1 (mixture of isomers) [Example 111, (3R/S)-3-[3-({(2R/S)-2-cyclopentyl-2-[4-(5-ethoxypyridin-3-yl)phenyl]acetyl}amino)-2-methylphenyl]-3-cyclopropylpropanoic acid]	53.9
Cc1c(CC(C)C(=O)O)cccc1NC(=O)C(c1ccc(-c2cncc(C(F)(F)F)c2)cc1)C1CCCC1 (single isomer, unassigned; stereoisomer 4) [Example 72, 3-{3-[(Cyclopentyl{4-[5-(trifluoromethyl)pyridin-3-yl]phenyl}acetyl)amino]-2-methylphenyl}-2-methylpropanoic acid, Stereoisomer 4]	71
Cc1ncc(-c2ccc([C@H](C(=O)Nc3ccc(F)c(CCC(=O)O)c3C)C3CCCC3)cc2)cc1Cl [Example 184, 3-[3-({(2R)-2-[4-(5-chloro-6-methylpyridin-3-yl)phenyl]-2-cyclopentylacetyl}amino)-6-fluoro-2-methylphenyl]propanoic acid]	23.7
